From US20230026271A1, “Piperazine Compounds for Inhibiting CPS1” (Eisai R&D Management Co., Ltd., priority 2019, published 2023)

Target: T1, CPS1 (Homo sapiens, UniProt P31327)
T1 construct: The full length, human CPS1 gene was cloned into pFastBac HTA; His6 (from the pFastBac HTA vector); made in house; host or cells: SF21 insect cells (baculovirus, Bac-to-bac)
T1 sequence (P31327 39-1500): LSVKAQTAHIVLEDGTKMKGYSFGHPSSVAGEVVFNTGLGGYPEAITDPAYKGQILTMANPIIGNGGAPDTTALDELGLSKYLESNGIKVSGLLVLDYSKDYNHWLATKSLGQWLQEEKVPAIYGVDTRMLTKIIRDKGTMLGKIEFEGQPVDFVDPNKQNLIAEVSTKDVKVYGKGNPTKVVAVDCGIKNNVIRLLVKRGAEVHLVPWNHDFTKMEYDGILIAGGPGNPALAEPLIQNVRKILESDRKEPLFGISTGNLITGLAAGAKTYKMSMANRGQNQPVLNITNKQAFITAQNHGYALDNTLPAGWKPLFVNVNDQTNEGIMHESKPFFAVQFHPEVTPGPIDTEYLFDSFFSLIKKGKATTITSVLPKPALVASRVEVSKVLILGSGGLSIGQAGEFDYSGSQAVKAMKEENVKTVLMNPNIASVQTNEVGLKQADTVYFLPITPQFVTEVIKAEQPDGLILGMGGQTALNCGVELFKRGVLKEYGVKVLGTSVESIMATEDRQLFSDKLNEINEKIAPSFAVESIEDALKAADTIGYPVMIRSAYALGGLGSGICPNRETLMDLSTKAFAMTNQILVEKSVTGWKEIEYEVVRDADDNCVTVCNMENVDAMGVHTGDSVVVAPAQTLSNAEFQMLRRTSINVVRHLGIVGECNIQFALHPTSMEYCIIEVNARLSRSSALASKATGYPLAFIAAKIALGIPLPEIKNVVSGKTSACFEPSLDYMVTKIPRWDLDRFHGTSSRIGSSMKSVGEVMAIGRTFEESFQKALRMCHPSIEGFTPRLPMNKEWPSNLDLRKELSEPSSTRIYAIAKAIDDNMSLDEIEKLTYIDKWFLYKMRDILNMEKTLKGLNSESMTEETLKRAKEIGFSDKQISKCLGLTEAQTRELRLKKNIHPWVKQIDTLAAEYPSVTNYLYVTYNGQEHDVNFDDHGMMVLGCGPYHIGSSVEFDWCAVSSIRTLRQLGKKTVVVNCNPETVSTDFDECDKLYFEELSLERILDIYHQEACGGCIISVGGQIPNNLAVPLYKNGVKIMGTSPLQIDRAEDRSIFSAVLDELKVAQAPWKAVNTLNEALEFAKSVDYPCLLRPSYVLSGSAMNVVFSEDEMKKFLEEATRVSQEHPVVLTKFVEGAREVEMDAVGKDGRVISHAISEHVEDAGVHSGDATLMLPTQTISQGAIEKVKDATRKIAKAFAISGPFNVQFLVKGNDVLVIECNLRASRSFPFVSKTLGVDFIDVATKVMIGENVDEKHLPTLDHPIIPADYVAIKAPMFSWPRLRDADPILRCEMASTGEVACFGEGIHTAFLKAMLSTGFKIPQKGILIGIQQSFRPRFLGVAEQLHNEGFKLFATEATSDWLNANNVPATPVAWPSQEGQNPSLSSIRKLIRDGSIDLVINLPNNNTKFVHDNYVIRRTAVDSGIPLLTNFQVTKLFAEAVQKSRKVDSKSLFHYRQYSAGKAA
Experiment: ADP-Glo endpoint assay measuring the ATPase activity of CPS1
Type: biochemical
Settings: geometric mean of a minimum of two values; 50 nM CPS1, 10 μM ATP, 0.2 mM NAG, 60 min at room temperature; read-out: ADPGlo IC50
Summary of the method: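 Full-length human His-tagged CPS1 from SF21 insect cells, 50 nM, preincubated 20 min with compound in pH 7.0 HEPES buffer containing KHCO3, (NH4)2SO3, MgCl2 and 0.2 mM NAG. Reaction started with 10 μM ATP, 60 min at room temperature; ADP formed detected by ADP-Glo luminescence.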

IC50 [µM]	SMILES
0.42	COc1ccc(C(=O)N2[C@H](C)CN(C(=O)c3c(F)cc(OC)cc3F)C[C@H]2C)c(F)c1 [Compound 15, ((2R,6R)-4-(2,6-Difluoro-4-methoxybenzoyl)-2,6-dimethylpiperazin-1-yl)(2-fluoro-4-methoxyphenyl)methanone]
5.58	COc1ccc(C(=O)N2[C@H](C)CN(C(=O)c3cc4ccccc4[nH]3)C[C@H]2C)c(F)c1 [Compound 59, ((2R,6R)-4-(1H-indole-2-carbonyl)-2,6-dimethylpiperazin-1-yl)(2-fluoro-4-methoxyphenyl)methanone]
> 66.7	COc1ccc(C(=O)N2C[C@@H](C)N(C(=O)c3c(F)cc(OC)cc3F)[C@H](C)C2)c(F)c1 [Compound 95, ((3R,5R)-4-(2,6-difluoro-4-methoxybenzoyl)-3,5-dimethylpiperazin-1-yl)(2-fluoro-4-methoxyphenyl)methanone]
16.1	COc1ccc(C(=O)N2C[C@@H](C)N(C(=O)c3cccc(O)c3F)[C@H](C)C2)c(F)c1 [Compound 75, ((3R,5R)-4-(2-fluoro-3-hydroxybenzoyl)-3,5-dimethylpiperazin-1-yl)(2-fluoro-4-methoxyphenyl)methanone]
3.3	COc1ccc(C(=O)N2C[C@@H](C)N(C(=O)c3cc4ccccc4[nH]3)[C@H](C)C2)c(F)c1 [Compound 57, ((3R,5R)-4-(1H-indole-2-carbonyl)-3,5-dimethylpiperazin-1-yl)(2-fluoro-4-methoxyphenyl)methanone]
10.4	COc1ccc(C(=O)N2C[C@@H](C)N(C(=O)c3ccc(-n4cnnn4)cc3)[C@H](C)C2)c(F)c1 [Compound 41, ((3R,5R)-4-(4-(1H-Tetrazol-1-yl)benzoyl)-3,5-dimethylpiperazin-1-yl)(2-fluoro-4-methoxyphenyl)methanone]
3.28	COc1ccc(C(=O)N2[C@H](C)CN(C(=O)c3ccc4cc[nH]c4n3)C[C@H]2C)c(F)c1 [Compound 19, ((2R,6R)-2,6-Dimethyl-4-(1H-pyrrolo[2,3-b]pyridine-6-carbonyl)piperazin-1-yl)(2-fluoro-4-methoxyphenyl)methanone]
45	COc1ccc(C(=O)N2C[C@@H](C)N(C(=O)c3ccc(-c4nnn[nH]4)cc3)[C@H](C)C2)c(F)c1 [Compound 90, ((3R,5R)-4-(4-(1H-tetrazol-5-yl)benzoyl)-3,5-dimethylpiperazin-1-yl)(2-fluoro-4-methoxyphenyl)methanone]
22.2	COc1ccc(C(=O)N2C[C@@H](C)N(C(=O)c3ccc(OC)c(C)c3)[C@H](C)C2)c(F)c1 [Compound 79, ((2R,6R)-4-(2-fluoro-4-methoxybenzoyl)-2,6-dimethylpiperazin-1-yl)(4-methoxy-3-methylphenyl)methanone]
0.193	COc1ccc(OC)c2[nH]c(C(=O)N3[C@H](C)CN(C(=O)c4ccc5cc[nH]c5c4)C[C@H]3C)cc12 [Compound 52, ((2R,6R)-4-(1H-indole-6-carbonyl)-2,6-dimethylpiperazin-1-yl)(4,7-dimethoxy-1H-indol-2-yl)methanone]
32.1	COc1ccc(OC)c2[nH]c(C(=O)N3[C@H](C)CN(C(=O)Cc4cc5ccccc5[nH]4)C[C@H]3C)cc12 [Compound 84, 1-((3R,5R)-4-(4,7-dimethoxy-1H-indole-2-carbonyl)-3,5-dimethylpiperazin-1-yl)-2-(1H-indol-2-yl)ethanone]
7.97	COc1ccc(C(=O)N2[C@H](C)CN(C(=O)c3ccc4c(c3)NC(=O)CO4)C[C@H]2C)c(F)c1 [Compound 35, 6-((3R,5R)-4-(2-Fluoro-4-methoxybenzoyl)-3,5-dimethylpiperazine-1-carbonyl)-2H-benzo[b][1,4]oxazin-3(4H)-one]
2.54	COc1ccc(C(=O)N2C[C@@H](C)N(C(=O)c3ccc(OC(F)F)cc3F)[C@H](C)C2)c(F)c1 [Compound 33, ((3R,5R)-4-(4-(difluoromethoxy)-2-fluorobenzoyl)-3,5-dimethylpiperazin-1-yl)(2-fluoro-4-methoxyphenyl)methanone]
25.8	COc1ccc(C(=O)N2[C@H](C)CN(C(=O)c3c(C)cc(OC)cc3F)C[C@H]2C)c(F)c1 [Compound 81, ((2R,6R)-4-(2-fluoro-4-methoxy-6-methylbenzoyl)-2,6-dimethylpiperazin-1-yl)(2-fluoro-4-methoxyphenyl)methanone]
0.19	COc1ccc(C(=O)N2[C@H](C)CN(C(=O)c3ccc(OC(F)F)cc3F)C[C@H]2C)c(F)c1 [Compound 9, ((2R,6R)-4-(4-(Difluoromethoxy)-2-fluorobenzoyl)-2,6-dimethylpiperazin-1-yl)(2-fluoro-4-methoxyphenyl)methanone]
4.68	COc1ccc(C(=O)N2CCN(C(=O)c3ccc(OC)cc3F)C(C)(C)C2)c(F)c1 [Compound 48, (2,2-Dimethylpiperazine-1,4-diyl)bis((2-fluoro-4-methoxyphenyl)methanone)]
10.7	COc1ccc(C(=O)N2C[C@@H](C)N(C(=O)c3ccc(CCO)cc3)[C@H](C)C2)c(F)c1 [Compound 42, ((2R,6R)-4-(2-Fluoro-4-methoxybenzoyl)-2,6-dimethylpiperazin-1-yl)(4-(2-hydroxyethyl)phenyl)methanone]
> 66.7	COc1ccc(OC)c2[nH]c(C(=O)N3C[C@@H](C)N(C(=O)Cc4cc5ccccc5[nH]4)[C@H](C)C3)cc12 [Compound 91, 1-((2R,6R)-4-(4,7-dimethoxy-1H-indole-2-carbonyl)-2,6-dimethylpiperazin-1-yl)-2-(1H-indol-2-yl)ethanone]
> 66.7	COc1ccc(C(=O)N2[C@H](C)CN(C(=O)c3cc(OC)c(OC)cc3F)C[C@H]2C)c(F)c1 [Compound 101, ((2R,6R)-4-(2-fluoro-4,5-dimethoxybenzoyl)-2,6-dimethylpiperazin-1-yl)(2-fluoro-4-methoxyphenyl)methanone]
> 66.7	COc1ccc(C(=O)N2C[C@@H](C)N(C(=O)c3ccc(NC(C)=O)cc3F)[C@H](C)C2)c(F)c1 [Compound 93, N-(3-fluoro-4-((2R,6R)-4-(2-fluoro-4-methoxybenzoyl)-2,6-dimethylpiperazine-1-carbonyl)phenyl)acetamide]
11.5	COc1ccc(C(=O)N2[C@H](C)CN(C(=O)c3ccc(OC)c(O)c3)C[C@H]2C)c(F)c1 [Compound 72, ((3R,5R)-4-(2-fluoro-4-methoxybenzoyl)-3,5-dimethylpiperazin-1-yl)(3-hydroxy-4-methoxyphenyl)methanone]
> 66.7	COc1ccc(C(=O)N2C[C@@H](C)N(C(=O)c3c[nH]c4ccc(O)cc34)[C@H](C)C2)c(F)c1 [Compound 104, ((2R,6R)-4-(2-fluoro-4-methoxybenzoyl)-2,6-dimethylpiperazin-1-yl)(5-hydroxy-1H-indol-3-yl)methanone]
5.87	COc1ccc(C(=O)N2[C@H](C)CN(C(=O)c3ccc4c(c3)CCCO4)C[C@H]2C)c(F)c1 [Compound 18, Chroman-6-yl((3R,5R)-4-(2-fluoro-4-methoxybenzoyl)-3,5-dimethylpiperazin-1-yl)methanone]
0.362	COc1ccc(C(=O)N2C[C@@H](C)N(C(=O)c3ccc(OC)cc3F)[C@H](C)C2)c(F)c1 [Compound 26, ((2R,6R)-2,6-Dimethylpiperazine-1,4-diyl)bis((2-fluoro-4-methoxyphenyl)methanone)]
0.71	COc1ccc(C(=O)N2[C@H](C)CN(C(=O)c3cc(F)c(OC)cc3F)C[C@H]2C)c(F)c1 [Compound 10, ((2R,6R)-4-(2,5-Difluoro-4-methoxybenzoyl)-2,6-dimethylpiperazin-1-yl)(2-fluoro-4-methoxyphenyl)methanone]
